Results as given in patent US12589087B2, “Enantiomer selective action on neurotransmission” (The Board of Trustees of the Leland Stanford Junior …, priority 2021, dated 2026).

Key:
Format in all cases: cell-based
GABAA α2β2γ2 = target: T1, GABAA α2β2γ2 (Homo sapiens, UniProt P18507+P47869+P47870); assay: FLIPR functional assay, HEK 293 cells (agonist/PAM/antagonist); conditions: top concentration 1 mM, read-out: EC50, functional agonist receptor assay
T1 construct: host or cells: HEK 293 (stably expressing)
T1 sequence (P47869 29-451): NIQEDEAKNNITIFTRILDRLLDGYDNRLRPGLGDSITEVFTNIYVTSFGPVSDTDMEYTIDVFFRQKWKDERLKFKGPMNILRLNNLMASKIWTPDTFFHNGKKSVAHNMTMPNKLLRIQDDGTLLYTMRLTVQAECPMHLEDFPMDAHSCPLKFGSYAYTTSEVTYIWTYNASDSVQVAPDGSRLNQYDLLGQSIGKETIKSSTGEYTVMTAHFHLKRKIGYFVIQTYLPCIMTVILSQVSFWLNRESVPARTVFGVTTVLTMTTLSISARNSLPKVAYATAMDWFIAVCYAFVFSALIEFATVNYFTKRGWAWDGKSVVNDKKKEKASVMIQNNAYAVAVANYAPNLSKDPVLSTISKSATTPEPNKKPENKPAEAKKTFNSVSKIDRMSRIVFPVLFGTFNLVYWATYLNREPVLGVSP
T1 sequence (P47870 25-512 limits assumed): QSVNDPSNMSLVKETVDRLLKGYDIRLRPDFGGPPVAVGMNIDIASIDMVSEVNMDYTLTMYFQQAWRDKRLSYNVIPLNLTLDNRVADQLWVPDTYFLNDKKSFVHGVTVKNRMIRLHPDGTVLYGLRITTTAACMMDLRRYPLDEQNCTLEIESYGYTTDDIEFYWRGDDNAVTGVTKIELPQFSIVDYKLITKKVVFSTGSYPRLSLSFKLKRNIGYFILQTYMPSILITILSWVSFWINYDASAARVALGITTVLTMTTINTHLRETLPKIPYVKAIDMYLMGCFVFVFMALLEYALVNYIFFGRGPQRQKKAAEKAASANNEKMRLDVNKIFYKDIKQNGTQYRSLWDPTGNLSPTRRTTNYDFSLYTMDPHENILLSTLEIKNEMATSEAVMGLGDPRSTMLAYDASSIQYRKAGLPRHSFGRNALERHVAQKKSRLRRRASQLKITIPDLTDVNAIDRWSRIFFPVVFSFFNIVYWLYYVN
T1 sequence (P18507 40-475): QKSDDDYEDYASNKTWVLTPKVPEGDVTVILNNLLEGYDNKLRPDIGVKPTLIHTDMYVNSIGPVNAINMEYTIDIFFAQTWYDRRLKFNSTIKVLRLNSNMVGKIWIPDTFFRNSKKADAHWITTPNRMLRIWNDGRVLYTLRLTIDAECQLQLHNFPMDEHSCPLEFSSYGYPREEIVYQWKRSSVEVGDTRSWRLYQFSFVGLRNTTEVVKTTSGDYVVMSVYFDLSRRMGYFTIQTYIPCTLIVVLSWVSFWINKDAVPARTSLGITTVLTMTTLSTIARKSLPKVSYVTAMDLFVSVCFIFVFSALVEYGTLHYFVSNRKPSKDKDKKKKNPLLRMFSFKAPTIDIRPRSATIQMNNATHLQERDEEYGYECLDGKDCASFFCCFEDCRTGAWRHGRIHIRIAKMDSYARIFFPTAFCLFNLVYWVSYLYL
Method: (§1) Functional assays of all GABAA, NMDA (GluN2A-GluN2D) and AMPA (GluA2) receptor subunits were performed by SB Drug Discovery as a part of their CNS discovery panel using FLIPR technology. Briefly, receptor-expressing HEK 293 cell lines were incubated in a red membrane potential dye in HEPES:HBSS pH 7.4 buffer and the fluorescence (λex: 488, λex: 510-570) was monitored over time as the test compounds and/or reference compounds were added to the solution. In agonist assay, only test compounds were added. In positive allosteric modulator assay, cells were preincubated with test compounds and then low concentration (approximately EC20) of an appropriate agonist was added. In antagonist assay, cells were preincubated with test compounds and then high concentration (approximately EC80) of an appropriate agonist was added. For GABAA assays, GABA was used as the agonist, picrotoxin was used as the reference antagonist and allopregnanolone was used as the reference positive allosteric modulator (PAM). For NMDA assays, a mixture of glutamate, glycine and CaCl2 was used as the agonist, MK801 was the reference antagonist and pregnenolone sulfate or GNE 9278 were used as reference PAMs. For AMPA assays, glutamate was used as the agonist, CNQX was the reference antagonist and cyclothiazide was used as the reference PAM. All compounds were tested at 7 concentration points in triplicate and EC50/IC50 was determined where applicable. Functional GABAB assay was performed by Eurofins Discovery (Cerep) using Ca^2+-dependent fluorimetry in RBL cells expressing human GABAB (B1/B2) receptor. All compounds were tested at a single concentration of 100 uM in triplicate.
(§2) All receptor assays were performed exactly as described in Example 1. Functional assays of all GABAA, NMDA (GluN2A-GluN2D) and AMPA (GluA2) receptor subunits were performed by SB Drug Discovery as a part of their CNS discovery panel using FLIPR technology. All compounds were tested at 7 concentrations in triplicate and EC50/IC50 was determined where applicable. Functional GABAB assay was performed by Eurofins Discovery (Cerep) using Ca^2+-dependent fluorimetry in RBL cells expressing human GABAB (B1/B2) receptor. All compounds were tested at a single concentration of 100 uM in triplicate. Nonspecific AMPA, kainate and NMDA binding assays were performed by Eurofins Discovery (Cerep) using rat cerebral cortex membranes and radiolabeled [^3H]AMPA, [^3H]kainic acid and [^3H]CGP 39653, respectively. All compounds were tested at a single concentration of 100 uM in triplicate. mGluR1, mGluR2, mGluR5 and GABAB binding assays were performed by Eurofins Discovery. All compounds were tested at a single concentration of 100 uM in triplicate.

GABAA α2β3γ2 = target: T2, GABAA α2β3γ2 (Homo sapiens, UniProt P18507+P28472+P47869); assay: as above; conditions: top concentration 1 mM, read-out: EC50, functional agonist receptor assay
T2 construct: host or cells: HEK 293 (stably expressing)
T2 sequence (P47869 29-451): as the sequence (P47869 29-451) above
T2 sequence (P28472 26-473): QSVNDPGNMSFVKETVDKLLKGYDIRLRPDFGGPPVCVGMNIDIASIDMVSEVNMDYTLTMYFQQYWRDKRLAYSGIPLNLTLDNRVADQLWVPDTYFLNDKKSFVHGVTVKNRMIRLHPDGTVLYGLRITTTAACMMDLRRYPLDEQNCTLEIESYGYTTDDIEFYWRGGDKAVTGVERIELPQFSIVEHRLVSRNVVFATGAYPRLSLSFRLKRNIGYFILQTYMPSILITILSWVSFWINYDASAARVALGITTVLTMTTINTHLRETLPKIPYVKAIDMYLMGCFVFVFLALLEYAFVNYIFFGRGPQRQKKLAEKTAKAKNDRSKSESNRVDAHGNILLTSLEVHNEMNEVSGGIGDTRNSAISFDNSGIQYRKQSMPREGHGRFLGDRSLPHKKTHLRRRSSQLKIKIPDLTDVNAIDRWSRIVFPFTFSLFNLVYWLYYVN
T2 sequence (P18507 40-475): as the sequence (P18507 40-475) above
Method: as §1, §2

GABAA α3β1γ2 = target: T3, GABAA α3β1γ2 (Homo sapiens, UniProt P18505+P18507+P34903); assay: as above; conditions: top concentration 1 mM, read-out: EC50, functional agonist receptor assay
T3 construct: host or cells: HEK 293 (stably expressing)
T3 sequence (P34903 29-492): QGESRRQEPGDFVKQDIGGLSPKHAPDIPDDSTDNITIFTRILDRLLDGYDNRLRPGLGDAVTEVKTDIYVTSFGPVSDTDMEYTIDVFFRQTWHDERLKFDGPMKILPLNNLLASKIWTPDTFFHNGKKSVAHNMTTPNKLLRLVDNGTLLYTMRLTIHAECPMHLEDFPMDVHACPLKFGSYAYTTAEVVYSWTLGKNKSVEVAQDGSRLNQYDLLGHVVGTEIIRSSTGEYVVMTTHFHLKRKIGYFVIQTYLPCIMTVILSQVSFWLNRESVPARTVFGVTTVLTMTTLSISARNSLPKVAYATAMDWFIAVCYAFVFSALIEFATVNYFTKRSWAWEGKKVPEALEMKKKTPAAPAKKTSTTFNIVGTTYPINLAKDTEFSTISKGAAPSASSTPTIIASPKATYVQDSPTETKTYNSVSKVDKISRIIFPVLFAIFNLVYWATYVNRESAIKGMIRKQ
T3 sequence (P18505 26-474): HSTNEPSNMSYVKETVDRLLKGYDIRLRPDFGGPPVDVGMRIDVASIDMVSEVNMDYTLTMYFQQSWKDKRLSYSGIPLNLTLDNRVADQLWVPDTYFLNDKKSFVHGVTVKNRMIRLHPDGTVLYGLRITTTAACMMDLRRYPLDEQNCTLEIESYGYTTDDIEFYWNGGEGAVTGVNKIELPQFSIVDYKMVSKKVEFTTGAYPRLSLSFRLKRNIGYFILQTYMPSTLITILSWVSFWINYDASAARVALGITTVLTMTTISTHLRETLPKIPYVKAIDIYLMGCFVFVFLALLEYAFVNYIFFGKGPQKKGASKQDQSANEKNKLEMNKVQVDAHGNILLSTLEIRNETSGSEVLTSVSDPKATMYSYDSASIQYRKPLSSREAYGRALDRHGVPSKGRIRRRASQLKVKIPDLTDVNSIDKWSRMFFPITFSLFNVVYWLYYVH
T3 sequence (P18507 40-475): as the sequence (P18507 40-475) above
Method: as §1, §2

GABAA α3β2γ2 = target: T4, GABAA α3β2γ2 (Homo sapiens, UniProt P18507+P34903+P47870); assay: as above; conditions: top concentration 1 mM, read-out: EC50, functional agonist receptor assay
T4 construct: host or cells: HEK 293 (stably expressing)
T4 sequence (P34903 29-492): as the sequence (P34903 29-492) above
T4 sequence (P47870 25-512 limits assumed): as the sequence (P47870 25-512 limits assumed) above
T4 sequence (P18507 40-475): as the sequence (P18507 40-475) above
Method: as §1, §2

GABAA α3β3γ2 = target: T5, GABAA α3β3γ2 (Homo sapiens, UniProt P18507+P28472+P34903); assay: as above; conditions: top concentration 1 mM; for EC50: read-out: EC50, functional agonist receptor assay
T5 construct: host or cells: HEK 293 (stably expressing)
T5 sequence (P34903 29-492): as the sequence (P34903 29-492) above
T5 sequence (P28472 26-473): as the sequence (P28472 26-473) above
T5 sequence (P18507 40-475): as the sequence (P18507 40-475) above
Method: as §1, §2

GABAA α4β1γ2 = target: T6, GABAA α4β1γ2 (Homo sapiens, UniProt P18505+P18507+P48169); assay: as above; conditions: top concentration 1 mM, read-out: EC50, functional agonist receptor assay
T6 construct: host or cells: HEK 293 (stably expressing)
T6 sequence (P48169 36-554): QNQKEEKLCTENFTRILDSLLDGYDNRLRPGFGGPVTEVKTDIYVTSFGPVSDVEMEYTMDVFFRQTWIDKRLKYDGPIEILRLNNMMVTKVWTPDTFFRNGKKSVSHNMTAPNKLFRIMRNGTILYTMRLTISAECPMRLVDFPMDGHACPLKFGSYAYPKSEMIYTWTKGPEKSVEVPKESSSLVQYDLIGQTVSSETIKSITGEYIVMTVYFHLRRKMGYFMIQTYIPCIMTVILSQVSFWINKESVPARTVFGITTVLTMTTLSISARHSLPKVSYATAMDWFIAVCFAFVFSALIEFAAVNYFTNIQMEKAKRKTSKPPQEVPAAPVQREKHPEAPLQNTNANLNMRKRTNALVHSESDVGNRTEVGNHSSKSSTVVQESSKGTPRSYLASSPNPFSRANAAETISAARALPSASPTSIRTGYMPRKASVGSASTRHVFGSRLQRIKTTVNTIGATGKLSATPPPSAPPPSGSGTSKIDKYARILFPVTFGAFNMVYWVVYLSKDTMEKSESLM
T6 sequence (P18505 26-474): as the sequence (P18505 26-474) above
T6 sequence (P18507 40-475): as the sequence (P18507 40-475) above
Method: as §1, §2

GABAA α4β2γ2 = target: T7, GABAA α4β2γ2 (Homo sapiens, UniProt P18507+P47870+P48169); assay: as above; conditions: top concentration 1 mM, read-out: EC50, functional agonist receptor assay
T7 construct: host or cells: HEK 293 (stably expressing)
T7 sequence (P48169 36-554): as the sequence (P48169 36-554) above
T7 sequence (P47870 25-512 limits assumed): as the sequence (P47870 25-512 limits assumed) above
T7 sequence (P18507 40-475): as the sequence (P18507 40-475) above
Method: as §1, §2

GABAA α4β3γ2 = target: T8, GABAA α4β3γ2 (Homo sapiens, UniProt P18507+P28472+P48169); assay: as above; conditions: top concentration 1 mM, read-out: EC50, functional agonist receptor assay
T8 construct: host or cells: HEK 293 (stably expressing)
T8 sequence (P48169 36-554): as the sequence (P48169 36-554) above
T8 sequence (P28472 26-473): as the sequence (P28472 26-473) above
T8 sequence (P18507 40-475): as the sequence (P18507 40-475) above
Method: as §1, §2

GABAA α6β1γ2 = GABAA α6β1γ2 (Homo sapiens, UniProt P18505+Q16445); assay: as above; conditions: top concentration 1 mM, read-out: EC50, functional agonist receptor assay
Sequence of GABAA α6β1γ2 (Q16445 20-453): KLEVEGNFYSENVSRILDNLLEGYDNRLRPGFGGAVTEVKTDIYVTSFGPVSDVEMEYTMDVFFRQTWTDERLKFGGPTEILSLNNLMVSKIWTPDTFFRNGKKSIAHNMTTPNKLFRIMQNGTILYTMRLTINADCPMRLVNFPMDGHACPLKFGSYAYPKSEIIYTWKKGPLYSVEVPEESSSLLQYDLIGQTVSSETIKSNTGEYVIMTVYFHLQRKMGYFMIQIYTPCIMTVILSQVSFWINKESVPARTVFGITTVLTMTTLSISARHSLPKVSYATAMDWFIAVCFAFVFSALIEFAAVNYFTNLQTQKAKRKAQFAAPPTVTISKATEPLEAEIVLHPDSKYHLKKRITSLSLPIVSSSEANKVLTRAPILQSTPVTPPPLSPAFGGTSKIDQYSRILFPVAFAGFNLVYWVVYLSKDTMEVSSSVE
Sequence of GABAA α6β1γ2 (P18505 26-474): as the sequence (P18505 26-474) above
Sequence of GABAA α6β1γ2 (P18507 40-475 partner): as the sequence (P18507 40-475) above
Method: as §1, §2

GABAA α6β3γ2 = GABAA α6β3γ2 (Homo sapiens, UniProt P28472+Q16445); assay: as above; conditions: top concentration 1 mM, read-out: EC50, functional agonist receptor assay
Sequence of GABAA α6β3γ2 (Q16445 20-453): as the sequence (Q16445 20-453) above
Sequence of GABAA α6β3γ2 (P28472 26-473): as the sequence (P28472 26-473) above
Sequence of GABAA α6β3γ2 (P18507 40-475 partner): as the sequence (P18507 40-475) above
Method: as §1, §2

[1] = tested on: mouse cerebral synaptosomes; assay: Potassium-induced neurotransmitter release assay; conditions: preloaded with 100 μM for 15 min at 37° C., high-potassium depolarization
Method: To each tube, 2.5 μL of a test compound solution (final concentration 100 μM) in Buffer KRP or Buffer KRP alone were added. Samples were incubated for 15 min at 37° C., briefly chilled on ice, and then immediately centrifuged and washed twice with Buffer KRP. The resulting pellets were then resuspended in either Buffer KRP (500 μL) or Buffer K-KRP (500 μL). Samples were immediately centrifuged or incubated for 5, 10 or 15 min at 37° C., then centrifuged and washed with Buffer KRP. Resulting pellets were resuspended in 400 μL of 60% ACN containing 2.5 μM Glu-d5 and 2.5 μM Gln-d5 as internal standards.
Synaptosome uptake and high potassium-induced release assays were performed as described in Example 1. Uptake assays used 250 μL aliquots of the synaptosome suspension transferred to a pre-chilled 0.8 mL 96 well plate. 5 μL of a test compound solution (0.5 mM; final concentration: 10 μM to compare directly to our previous work was added to each well and incubated at 0° C. or 37° C. After 10, 20 or 30 min, samples were chilled on ice and immediately sedimented (2,500 g for 15 min at 4° C.) and washed with Buffer S (0.5 mL, ×2). Resulting pellets were resuspended in 200 μL of 60% ACN containing 5 μM GABA-d6 and stored at −80° C. until analysis. Potassium-induced release assay used 500 μL aliquots of the synaptosome suspension transferred to pre-chilled microcentrifuge tubes. 2.5 μL of a test compound solution (20 mM; final concentration: 100 μM) in Buffer KRP was added to each tube and incubated for 15 min at 37° C., briefly chilled on ice, and then immediately sedimented (8,000 g for 4 min at 4° C.) and washed with Buffer KRP, followed by centrifugation, twice. The resulting pellets were resuspended in 500 μL of Buffer KRP or Buffer K-KRP and incubated for 5, 10 or 15 min at 37° C., sedimented (8,000 g for 4 min at 4° C.), and washed with Buffer KRP. Resulting pellets were resuspended in 400 μL of 60% ACN containing 2.5 μM GABA-d6 as internal standard and stored at −80° C. until analysis.

Row | Structure (SMILES) | EC50 (GABAA α2β2γ2) [µM] | EC50 (GABAA α2β3γ2) [µM] | EC50 (GABAA α3β1γ2) [µM] | EC50 (GABAA α3β2γ2) [µM] | EC50 (GABAA α3β3γ2) [µM] | EC50 (GABAA α4β1γ2) [µM] | EC50 (GABAA α4β2γ2) [µM] | EC50 (GABAA α4β3γ2) [µM] | EC50 (GABAA α6β1γ2) [µM] | EC50 (GABAA α6β3γ2) [µM] | potassium-induced release from synaptosomes [1] | IC50 (GABAA α3β3γ2; read-out: IC50, functional antagonist receptor assay) [µM]
1 | C[C@@](N)(CCC(=O)O)C(=O)O [(R)-2MeGlu, (R)-2-methylglutamic acid] | 660 | 622 | 742 | 1040 | 959 | 870 | 1250 | > 1000 | 772 | > 1000 | not significantly altered by depolarization | –
2 | C[C@](N)(CCC(=O)O)C(=O)O [(S)-2MeGlu, (S)-2-methylglutamic acid] | 530 | 342 | 782 | 961 | 725 | 704 | 1020 | > 1000 | 280 | 998 | released upon depolarization | 978
